According to patent US20220089575A1, “FARNESOID X RECEPTOR AGONISTS AND USES THEREOF” (Metacrine, Inc., priority 2017, published 2022):

What follows are compounds tested against T1, hFXR (Homo sapiens, UniProt Q96RI1) (assay: In Vitro FXR Assay (TK): TK-ECRE-luc reporter in transfected CV-1 cells). Conditions: 18 hrs, luminescence, maximum efficacy of <25% of the Fexarmine control classified as '+'.
T1 construct: expressed in transfected cells; host or cells: CV-1 cells
T1 sequence (Q96RI1 1-486): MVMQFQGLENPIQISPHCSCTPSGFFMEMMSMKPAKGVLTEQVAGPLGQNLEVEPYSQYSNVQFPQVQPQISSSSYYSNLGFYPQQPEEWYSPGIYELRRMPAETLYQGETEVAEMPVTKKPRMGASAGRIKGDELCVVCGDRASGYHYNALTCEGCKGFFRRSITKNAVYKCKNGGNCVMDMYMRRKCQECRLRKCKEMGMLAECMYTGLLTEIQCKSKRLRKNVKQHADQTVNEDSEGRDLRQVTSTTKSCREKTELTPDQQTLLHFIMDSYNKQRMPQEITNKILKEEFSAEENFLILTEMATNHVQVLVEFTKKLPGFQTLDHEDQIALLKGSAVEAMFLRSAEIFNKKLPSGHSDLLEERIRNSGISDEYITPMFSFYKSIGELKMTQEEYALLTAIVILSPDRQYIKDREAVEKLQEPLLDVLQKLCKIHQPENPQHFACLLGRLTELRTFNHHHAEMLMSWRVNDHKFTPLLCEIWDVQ
T1 sequence (P19793 1-462 partner): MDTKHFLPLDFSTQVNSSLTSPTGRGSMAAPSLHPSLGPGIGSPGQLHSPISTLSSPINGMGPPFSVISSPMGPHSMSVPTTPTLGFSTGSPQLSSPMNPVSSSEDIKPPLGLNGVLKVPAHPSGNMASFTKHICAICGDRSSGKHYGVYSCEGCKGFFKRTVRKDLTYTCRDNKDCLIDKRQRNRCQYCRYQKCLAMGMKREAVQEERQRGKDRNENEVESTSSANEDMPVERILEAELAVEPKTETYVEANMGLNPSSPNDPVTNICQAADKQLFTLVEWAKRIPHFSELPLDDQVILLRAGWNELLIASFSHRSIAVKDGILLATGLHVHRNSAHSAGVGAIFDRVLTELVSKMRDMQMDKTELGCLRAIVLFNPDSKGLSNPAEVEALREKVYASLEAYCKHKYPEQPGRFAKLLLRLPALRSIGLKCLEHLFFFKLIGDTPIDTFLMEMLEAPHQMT
Format: cell-based
Summary of the method: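 Luciferase luminescence read-out from lysed CV-1 cells transiently co-expressing hFXR and hRXR with a TK-ECRE-luc reporter (pCMX-YFP co-transfected). Compound exposure lasted 18 h at 37 °C, 5% CO2, in medium containing charcoal super-stripped serum.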

SMILES | EC50
COc1ccc([C@H]2CC[C@H](CN(c3cccc(-c4cnc(C5CC5)s4)c3)C(=O)[C@H]3CC[C@H](NC(=O)CN)CC3)CC2)cc1C [Compound 31.07, trans-4-(2-Aminoacetamido)-N-(3-(2-cyclopropylthiazol-5-yl)phenyl)-N-((trans-4-(4-methoxy-3-methylphenyl)cyclohexyl)methyl) cyclohexanecarboxamide] | 250 to 1000 nM
CNC(=O)O[C@H]1CC[C@H](C(=O)N(C[C@H]2CC[C@H](c3ccc(OC)c(C)c3)CC2)c2cccc(-c3cnn(C4CC4)c3)c2)CC1 [Compound 1.04, trans-4-((3-(1-Cyclopropyl-1H-pyrazol-4-yl)phenyl)((trans-4-(4-methoxy-3-methylphenyl)cyclohexyl)methyl)carbamoyl)cyclohexyl methylcarbamate] | ≤ 250 nM
COc1ccc([C@H]2CC[C@H](CN(c3cc(-c4coc(C5CC5)n4)ccn3)C(=O)[C@H]3CC[C@H](OC(=O)NCCCO)CC3)CC2)nc1C [Compound 6.62] | ≤ 250 nM
COc1ccc([C@H]2CC[C@H](CN(c3cccc(-c4cnn(C5CC5)c4)c3)C(=O)[C@H]3CC[C@H](NS(C)(=O)=O)CC3)CC2)cc1C [Compound 26.02, trans-N-(3-(1-Cyclopropyl-1H-pyrazol-4-yl)phenyl)-N-((trans-4-(4-methoxy-3-methylphenyl)cyclohexyl)methyl)-4-(methylsulfonamido) cyclohexanecarboxamide] | ≤ 250 nM
CNC(=O)O[C@H]1CC[C@H](C(=O)N(C[C@H]2CC[C@H](c3ccc(OC)c(C)n3)CC2)c2cc(-c3cnc(C(C)C)s3)ccn2)CC1 [Compound 5.04, trans-4-((4-(2-Isopropylthiazol-5-yl)pyridin-2-yl)((trans-4-(5-methoxy-6-methylpyridin-2-yl)cyclohexyl)methyl)carbamoyl)cyclohexyl methylcarbamate] | ≤ 250 nM
COCC1CN(C(=O)O[C@H]2CC[C@H](C(=O)N(C[C@H]3CC[C@H](c4ccc(OC)c(C)n4)CC3)c3cc(-c4coc(C5CC5)n4)ccn3)CC2)C1 [Compound 7.77, trans-4-((4-(2-Cyclopropyloxazol-4-yl)pyridin-2-yl)((trans-4-(5-methoxy-6-methylpyridin-2-yl)cyclohexyl)methyl)carbamoyl)cyclohexyl 3-(methoxymethyl)azetidine-1-carboxylate] | ≤ 250 nM
CNC(=O)O[C@H]1CC[C@H](C(=O)N(CC23CCC(c4ccc(OC)c(C)c4)(CC2)CC3)c2cccc(-c3coc(C4CC4)n3)c2)CC1 [Compound 2.07, 4-((3-(2-Cyclopropyloxazol-4-yl)phenyl)((4-(4-methoxy-3-methylphenyl)bicyclo[2.2.2]octan-1-yl)methyl)carbamoyl)cyclohexyl trans-methylcarbamate] | ≤ 250 nM
COc1ncc(-c2cccc(N(C[C@H]3CC[C@H](c4ccc(OC)c(C)c4)CC3)C(=O)[C@H]3CC[C@H](NC(C)=O)CC3)c2)s1 [Compound 25.04, trans-4-Acetamido-N-((trans-4-(4-methoxy-3-methylphenyl)cyclohexyl)methyl)-N-(3-(2-methoxythiazol-5-yl)phenyl)cyclohexanecarboxamide] | ≤ 250 nM
CNC(=O)O[C@H]1CC[C@H](C(=O)N(C[C@H]2CC[C@H](c3ccc(OC)c(C)n3)CC2)c2cccc(-c3coc(C(C)C)n3)c2)CC1 [Compound 5.31, trans-4-((3-(2-Isopropyloxazol-4-yl)phenyl)((trans-4-(5-methoxy-6-methylpyridin-2-yl)cyclohexyl)methyl)carbamoyl)cyclohexyl methylcarbamate] | ≤ 250 nM

Further lines, results first:

EC50 | SMILES
≤ 250 nM | COC(=O)C12CCC(C(=O)N(C[C@H]3CC[C@H](c4ccc(OC)c(C)c4)CC3)c3cccc(-c4cnc(OC)s4)c3)(CC1)CC2 [Compound 18.10, Methyl 4-(((trans-4-(4-methoxy-3-methylphenyl)cyclohexyl)methyl)(3-(2-methoxythiazol-5-yl)phenyl)carbamoyl)bicyclo[2.2.2]octane-1-carboxylate]
≤ 250 nM | CNC(=O)O[C@H]1CC[C@H](C(=O)N(C[C@H]2CC[C@H](c3ccc(OC)c(C#N)n3)CC2)c2cccc(-c3coc(C(C)C)n3)c2)CC1 [Compound 5.46, trans-4-(((trans-4-(6-Cyano-5-methoxypyridin-2-yl)cyclohexyl)methyl)(3-(2-isopropyloxazol-4-yl)phenyl)carbamoyl)cyclohexyl methylcarbamate]
≤ 250 nM | COc1ccc([C@H]2CC[C@H](CN(c3cccc(-c4cnn(C5CC5)c4)c3)C(=O)[C@H]3CC[C@H](C(=O)OC)CC3)CC2)nc1C [Compound 18.19, trans-Methyl 4-((3-(1-cyclopropyl-1H-pyrazol-4-yl)phenyl)((trans-4-(5-methoxy-6-methylpyridin-2-yl)cyclohexyl)methyl)carbamoyl) cyclohexanecarboxylate]
≤ 250 nM | COc1ccc([C@H]2CC[C@H](CN(c3cc(-c4cnn(C(C)C)c4)ccn3)C(=O)[C@H]3CC[C@H](OC(=O)NC(C)C)CC3)CC2)nc1C [Compound 7.44, trans-4-((4-(1-Isopropyl-1H-pyrazol-4-yl)pyridin-2-yl)((trans-4-(5-methoxy-6-methylpyridin-2-yl)cyclohexyl)methyl)carbamoyl)cyclohexyl isopropylcarbamate]
≤ 250 nM | CCOC1CN(C(=O)O[C@H]2CC[C@H](C(=O)N(C[C@H]3CC[C@H](c4ccc(OC)c(C)n4)CC3)c3cc(-c4coc(C5CC5)n4)ccn3)CC2)C1 [Compound 7.87, trans-4-((4-(2-Cyclopropyloxazol-4-yl)pyridine-2-yl)((trans-4-(5-methoxy-6-methylpyridin-2-yl)cyclohexyl)methyl)carbamoyl)cyclohexyl 3-ethoxyazetidine-1-carboxylate]
≤ 250 nM | CNC(=O)O[C@H]1CC[C@H](C(=O)N(CC23CCC(c4ccc(N(C)C)nc4)(CC2)CC3)c2cccc(-c3cnn(C4CC4)c3)c2)CC1 [Compound 3.03, 4-((3-(1-Cyclopropyl-1H-pyrazol-4-yl)phenyl)((4-(6-(dimethylamino)pyridin-3-yl)bicyclo[2.2.2]octan-1-yl)methyl)carbamoyl)cyclohexyl trans-methylcarbamate]
≤ 250 nM | CCCOC1CN(C(=O)O[C@H]2CC[C@H](C(=O)N(C[C@H]3CC[C@H](c4ccc(OC)c(C)n4)CC3)c3cc(-c4coc(C5CC5)n4)ccn3)CC2)C1 [Compound 7.104, trans-4-((4-(2-Cyclopropyloxazol-4-yl)pyridine-2-yl)((trans-4-(5-methoxy-6-methylpyridin-2-yl)cyclohexyl)methyl)carbamoyl)cyclohexyl 3-propoxyazetidine-1-carboxylate]
≤ 250 nM | COc1ccc([C@H]2CC[C@H](CN(c3cccc(-c4coc(C5CC5)n4)c3)C(=O)[C@H]3CC[C@H](NC(C)=O)CC3)CC2)cc1C [Compound 26.19, trans-4-Acetamido-N-(3-(2-cyclopropyloxazol-4-yl)phenyl)-N-((trans-4-(4-methoxy-3-methylphenyl)cyclohexyl)methyl) cyclohexanecarboxamide]
≤ 250 nM | COc1ccc([C@H]2CC[C@H](CN(c3cccc(-c4coc(C5CC5)n4)c3)C(=O)[C@H]3CC[C@H](OC(=O)NCCO)CC3)CC2)nc1C [Compound 6.50, trans-4-((3-(2-Cyclopropyloxazol-4-yl)phenyl)((trans-4-(5-methoxy-6-methylpyridin-2-yl)cyclohexyl)methyl)carbamoyl)cyclohexyl (2-hydroxyethyl)carbamate]
≤ 250 nM | COc1ccc(C23CCC(CN(c4cccc(-c5cnn(C6CC6)c5)c4)C(=O)[C@H]4CC[C@H](NC(=O)COC(C)=O)CC4)(CC2)CC3)cc1C [Compound 26.08, 2-((4-((3-(1-Cyclopropyl-1H-pyrazol-4-yl)phenyl)((4-(4-methoxy-3-methylphenyl)bicyclo[2.2.2]octan-1-yl)methyl)carbamoyl)cyclohexyl)amino)-2-oxoethyl trans-acetate]
